Results from patent US20160280736A1, “CYCLIC PEPTIDE COMPOUND, AND PREPARATION METHOD, PHARMACEUTICAL COMPOSITION AND USE THEREOF” (HANGZHOU GUANYU BIO-MEDICAL CO., LTD., priority 2013, published 2016).
Like-named read-outs stand apart in the source and are kept apart here.

What was measured:
[1] = tested on: lncap (prostate cancer cells); assay: MTT cancer cell growth inhibition; type: cell-based; settings: 72 hours incubation, lncap cells, read-out: GI50 lncap
Source text: (§1) MTT assay principle is yellow MTT can penetrate membrane into the cell, succinic dehydrogenase of the mitochondria in living cells can make exogenous MTT reduction of insoluble in water of blue-violet acicular formazan for crystallization and deposition in the cell, crystallization can be dissolved dimethyl sulfoxide (DMSO) solution, detected its absorbance at 490 nm/570 nm wavelength by enzyme-linked immunosorbent assay, which can reflect the number of cells.
(§2) Using DMEM+10% FBS culture medium or using 1640+10% FBS culture, respectively.
(§3) Experimental group: 190 μl cell suspension+10 μl different concentrations of drugs (the final concentration is 10^−5˜10^−10 M)
(§4) a) Cells were seeded in 96-well plates with the inoculation of 1500/well, 190 μl/hole, 37° C., 5% of CO2 incubator overnight;
(§5) b) The next day each well was added 10 μl of different drugs. The final concentration of drug was 10^−5˜10^−10 M, three parallel holes; 37° C., 5% CO2 culture incubator for 72 hours incubation;
(§6) c) Per well was added 20 μl 5 mg/ml of MTT, 37° C., 5% CO2 culture incubator for 4 hours incubation;
(§7) d) The supernatant was discarded. Each well was added 100 μl of DMSO and oscillation;
(§8) e) 570 nm readings. Calculate cell viability. GI50 calculation based on the results.

HDAC3 = HDAC3 (Homo sapiens, UniProt O15379); assay: HDAC biochemical activity measurement (fluorescent substrate deacetylation); settings: IC50 (μM) HDAC3, HDAC3 enzyme, 37°, 30 minutes
Sequence of HDAC3 (O15379 whole entry, species assumed): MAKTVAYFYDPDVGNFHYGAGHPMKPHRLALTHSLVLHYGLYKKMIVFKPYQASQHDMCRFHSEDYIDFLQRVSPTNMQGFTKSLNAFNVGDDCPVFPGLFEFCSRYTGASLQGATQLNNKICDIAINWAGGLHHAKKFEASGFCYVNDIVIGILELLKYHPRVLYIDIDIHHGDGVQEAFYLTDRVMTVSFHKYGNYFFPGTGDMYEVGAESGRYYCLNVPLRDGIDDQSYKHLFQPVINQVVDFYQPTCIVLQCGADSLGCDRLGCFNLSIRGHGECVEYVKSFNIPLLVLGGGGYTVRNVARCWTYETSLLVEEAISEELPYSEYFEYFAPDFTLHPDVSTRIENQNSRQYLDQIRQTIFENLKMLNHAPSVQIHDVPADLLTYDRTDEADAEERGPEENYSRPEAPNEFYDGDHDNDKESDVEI
Sequence of HDAC3 (Q9Y618 395-489 partner limits assumed, species assumed): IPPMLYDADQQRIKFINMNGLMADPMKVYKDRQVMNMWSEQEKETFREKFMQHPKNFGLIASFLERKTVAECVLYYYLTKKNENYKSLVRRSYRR
Procedure: (§9) Measurement principle: The chemical activity of the compound is determined according to the degree of deacetylation inhibition of the HDAC enzyme. This experiment measured the degree of deacetylation related to tumor proliferation and metastasis of HDAC1, HDAC2, HDAC3, HDAC8, HDAC11 five subtypes HDAC enzymes. After the substrate containing an acetylated lysine side chain and HDAC enzyme are labeled with a fluorescent label, the fluorescent substrate is de acetyl. The fluorescent labeled substrate is cleaved by the enzyme, and the fluorescent substance is released, which generates 460 nm emission light under the excitation of 360 nm light.
(§10) Specific steps: HDAC substrate was diluted with reaction buffer to 200M (reaction concentration of 20M), the HDAC enzyme was diluted to the appropriate concentration, then added different concentrations of the test compounds and acted at 37 ? 30 minutes, and then added the same volume of 2-times concentration substrate developing solution (developer), incubated at room temperature for 15 minutes. Finally, the last reading measured with a microplate plate reader, excitation light was 360 nm, the emitted light was 460 nm, data processing software was Prime 4, and the results are shown in Table 1.

HDAC1 = HDAC1 (Homo sapiens, UniProt Q13547); assay: as above; settings: HDAC1 enzyme, 37°, 30 minutes
Sequence of HDAC1 (Q13547 whole entry, species assumed): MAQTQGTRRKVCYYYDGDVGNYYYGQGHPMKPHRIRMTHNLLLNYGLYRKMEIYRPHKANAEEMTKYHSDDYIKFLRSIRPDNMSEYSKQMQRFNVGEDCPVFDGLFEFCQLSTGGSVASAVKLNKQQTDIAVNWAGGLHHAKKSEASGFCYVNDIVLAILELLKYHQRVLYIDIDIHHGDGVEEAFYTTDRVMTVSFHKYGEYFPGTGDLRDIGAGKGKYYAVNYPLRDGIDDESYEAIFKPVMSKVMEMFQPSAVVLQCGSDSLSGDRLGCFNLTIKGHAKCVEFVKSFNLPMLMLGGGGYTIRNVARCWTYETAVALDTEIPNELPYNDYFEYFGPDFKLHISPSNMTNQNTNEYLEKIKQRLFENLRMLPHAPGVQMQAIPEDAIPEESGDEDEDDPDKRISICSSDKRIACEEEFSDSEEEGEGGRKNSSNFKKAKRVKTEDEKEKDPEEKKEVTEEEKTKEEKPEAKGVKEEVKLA
Procedure: as §9, §10

[2] = tested on: BGC-823 (human gastric cancer cells); assay: MTT cancer cell growth inhibition; type: cell-based; settings: 72 hours incubation, BGC-823 cells, read-out: GI50 BGC8
Source text: as §1, §2, §3, §4, §5, §6, §7, §8

[3] = tested on: U937 (human leukemia cells); assay: MTT cancer cell growth inhibition; type: cell-based; settings: 72 hours incubation
Source text: as §1, §2, §3, §4, §5, §6, §7, §8

[4] = tested on: DU145 (human prostate cancer cells); assay: MTT cancer cell growth inhibition; type: cell-based; settings: 72 hours incubation, DU145 cells, read-out: GI50 Du14
Source text: as §1, §2, §3, §4, §5, §6, §7, §8

[5] = tested on: HT1080 (human fibrosarcoma cells); assay: MTT cancer cell growth inhibition; type: cell-based; settings: 72 hours incubation, HT1080 cells, read-out: GI50 HT10
Source text: as §1, §2, §3, §4, §5, §6, §7, §8

[6] = tested on: A549 (human lung cancer cells); assay: MTT cancer cell growth inhibition; type: cell-based; settings: 72 hours incubation, A549 cells, read-out: GI50 A549
Source text: as §1, §2, §3, §4, §5, §6, §7, §8

[7] = tested on: PANC-1 (Pac-1, human pancreatic cancer cells); assay: MTT cancer cell growth inhibition; type: cell-based; settings: 72 hours incubation, PANC-1 cells, read-out: GI50 PAN
Source text: as §1, §2, §3, §4, §5, §6, §7, §8

[8] = tested on: MCF-7 (human breast cancer cells); assay: MTT cancer cell growth inhibition; type: cell-based; settings: 72 hours incubation, MCF-7 cells
Source text: as §1, §2, §3, §4, §5, §6, §7, §8

[9] = tested on: Hela (human cervical cancer cells); assay: MTT cancer cell growth inhibition; type: cell-based; settings: 72 hours incubation, Hela cells, read-out: GI50 Hela
Source text: as §1, §2, §3, §4, §5, §6, §7, §8

HDAC11 = target: T1, HDAC11 (Homo sapiens, UniProt Q96DB2); assay: HDAC biochemical activity measurement (fluorescent substrate deacetylation); settings: IC50 (μM) HDAC11, HDAC11 enzyme, 37°, 30 minutes
T1 sequence (Q96DB2 1-347): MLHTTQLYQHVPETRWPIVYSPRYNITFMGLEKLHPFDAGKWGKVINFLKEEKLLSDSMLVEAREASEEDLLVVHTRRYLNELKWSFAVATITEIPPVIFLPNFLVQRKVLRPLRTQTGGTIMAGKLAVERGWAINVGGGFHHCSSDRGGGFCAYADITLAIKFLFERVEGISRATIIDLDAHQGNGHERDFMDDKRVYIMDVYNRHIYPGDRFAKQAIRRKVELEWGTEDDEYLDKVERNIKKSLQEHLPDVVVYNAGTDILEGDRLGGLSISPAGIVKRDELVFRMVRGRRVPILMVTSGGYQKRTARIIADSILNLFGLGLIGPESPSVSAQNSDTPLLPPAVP
Procedure: as §9, §10

HDAC2 = HDAC2 (Homo sapiens, UniProt Q92769); assay: as above; settings: HDAC2 enzyme, 37°, 30 minutes
Sequence of HDAC2 (Q92769 whole entry, species assumed): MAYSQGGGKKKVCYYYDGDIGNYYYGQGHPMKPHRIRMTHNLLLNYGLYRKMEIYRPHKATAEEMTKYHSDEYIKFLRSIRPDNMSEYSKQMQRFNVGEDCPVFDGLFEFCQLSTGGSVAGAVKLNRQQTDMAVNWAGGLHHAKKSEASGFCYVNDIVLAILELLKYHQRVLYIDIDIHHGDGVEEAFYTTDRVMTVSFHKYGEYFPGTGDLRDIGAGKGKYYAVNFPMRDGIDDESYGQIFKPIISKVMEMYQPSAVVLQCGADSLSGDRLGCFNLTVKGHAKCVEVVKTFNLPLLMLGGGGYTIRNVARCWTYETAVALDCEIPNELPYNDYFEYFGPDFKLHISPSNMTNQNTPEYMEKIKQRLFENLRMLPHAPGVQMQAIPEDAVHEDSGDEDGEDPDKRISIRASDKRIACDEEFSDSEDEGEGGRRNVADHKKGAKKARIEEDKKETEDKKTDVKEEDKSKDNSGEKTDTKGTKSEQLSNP
Procedure: as §9, §10

HDAC8 = target: T2, HDAC8 (Homo sapiens, UniProt Q9BY41); assay: as above; settings: HDAC8 enzyme, 37°, 30 minutes
T2 sequence (Q9BY41 1-377): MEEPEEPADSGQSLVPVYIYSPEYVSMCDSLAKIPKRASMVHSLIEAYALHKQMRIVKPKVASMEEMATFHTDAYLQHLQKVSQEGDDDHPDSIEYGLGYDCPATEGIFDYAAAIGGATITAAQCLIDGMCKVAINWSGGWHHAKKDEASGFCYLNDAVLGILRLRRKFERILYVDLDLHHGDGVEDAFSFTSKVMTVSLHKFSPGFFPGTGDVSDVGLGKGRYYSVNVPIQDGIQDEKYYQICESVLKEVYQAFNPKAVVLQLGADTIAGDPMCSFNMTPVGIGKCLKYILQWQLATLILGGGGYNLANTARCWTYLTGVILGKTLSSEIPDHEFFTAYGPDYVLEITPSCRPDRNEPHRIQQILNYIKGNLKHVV
Procedure: as §9, §10

[10] = tested on: N-87 (human gastric cancer cells); assay: MTT cancer cell growth inhibition; type: cell-based; settings: 72 h, N-87 cells, 72 hours incubation
Source text: as §1, §2, §3, §4, §5, §6, §7, §8

HDAC7 = target: T3, HDAC7 (Homo sapiens, UniProt Q8WUI4); assay: HDAC biochemical activity measurement (fluorescent substrate deacetylation); settings: HDAC7 enzyme, 37°, 30 minutes
T3 sequence (Q8WUI4 1-952): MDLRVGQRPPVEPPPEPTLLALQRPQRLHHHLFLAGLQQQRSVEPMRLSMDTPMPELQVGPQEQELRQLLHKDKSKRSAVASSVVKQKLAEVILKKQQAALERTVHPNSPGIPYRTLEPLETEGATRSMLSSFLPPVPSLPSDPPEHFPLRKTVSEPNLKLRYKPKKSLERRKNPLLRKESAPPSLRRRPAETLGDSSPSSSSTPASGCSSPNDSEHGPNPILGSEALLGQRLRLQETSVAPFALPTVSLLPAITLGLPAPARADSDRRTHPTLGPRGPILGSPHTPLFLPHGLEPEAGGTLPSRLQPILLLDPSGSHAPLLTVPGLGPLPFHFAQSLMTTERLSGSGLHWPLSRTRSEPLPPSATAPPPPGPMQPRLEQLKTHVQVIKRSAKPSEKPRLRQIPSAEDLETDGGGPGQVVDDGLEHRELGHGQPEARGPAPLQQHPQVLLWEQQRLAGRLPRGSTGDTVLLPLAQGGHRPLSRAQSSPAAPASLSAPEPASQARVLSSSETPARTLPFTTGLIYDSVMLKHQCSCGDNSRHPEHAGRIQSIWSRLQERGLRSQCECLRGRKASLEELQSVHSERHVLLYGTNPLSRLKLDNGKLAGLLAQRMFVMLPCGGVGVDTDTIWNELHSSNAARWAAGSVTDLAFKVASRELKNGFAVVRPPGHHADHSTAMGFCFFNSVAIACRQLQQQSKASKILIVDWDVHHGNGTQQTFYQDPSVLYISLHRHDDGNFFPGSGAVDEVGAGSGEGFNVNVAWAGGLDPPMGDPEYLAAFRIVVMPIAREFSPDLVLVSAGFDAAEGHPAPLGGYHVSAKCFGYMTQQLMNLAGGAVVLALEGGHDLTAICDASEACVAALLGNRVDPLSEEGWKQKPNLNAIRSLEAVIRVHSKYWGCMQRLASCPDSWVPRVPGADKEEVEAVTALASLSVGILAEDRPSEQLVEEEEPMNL
Procedure: Measurement principle: The chemical activity of the compound is determined according to the degree of deacetylation inhibition of the HDAC enzyme. […] After the substrate containing an acetylated lysine side chain and HDAC enzyme are labeled with a fluorescent label, the fluorescent substrate is de acetyl. The fluorescent labeled substrate is cleaved by the enzyme, and the fluorescent substance is released, which generates 460 nm emission light under the excitation of 360 nm light.
as §10

[11] = tested on: MOLT-4 (human acute lymphoblastic leukemia cells); assay: MTT cancer cell growth inhibition; type: cell-based; settings: 72 hours incubation, MOLT-4 cells, read-out: GI50 Molt-
Source text: as §1, §2, §3, §4, §5, §6, §7, §8

Row | SMILES | GI50 ([1]; Homo sapiens, LNCaP, 72 h) | IC50 (μM) HDAC7 (HDAC7) | GI50 [2] | GI50 [1] | GI50 [4] | GI50 [5] | GI50 [6] | GI50 [8] | GI50 [11] | further results
1 | C/C=C1\NC(=O)c2cccc(n2)CNC(=O)C[C@@H](/C=C/CCSC(=O)CCCCCCC)OC(=O)[C@@H](C)NC1=O [Compound 236] | 0.053 µM | – | – | – | – | – | – | – | – | –
2 | C/C=C1\NC(=O)c2ccc(SC)c(n2)CNC(=O)C[C@@H](/C=C/CCSC(=O)CCCC)OC(=O)[C@H](C(C)C)NC1=O [Compound 158] | 0.043 µM | – | – | – | – | – | – | – | – | IC50 (HDAC3): 0.053 µM; IC50 (HDAC1): 0.081 µM; GI50 ([2]; Homo sapiens, BGC-823, 72 h): 0.032 µM; GI50 ([3]; Homo sapiens, U-937, 72 h): 0.042 µM; GI50 ([4]; Homo sapiens, DU-145, 72 h): 0.063 µM; GI50 ([5]; Homo sapiens, HT-1080, 72 h): 0.076 µM; GI50 ([6]; Homo sapiens, A549, 72 h): 0.037 µM; GI50 ([7]; Homo sapiens, PANC-1, 72 h): 0.023 µM; GI50 ([8]; Homo sapiens, MCF7, 72 h): 0.021 µM; GI50 ([9]; Homo sapiens, HeLa, 72 h): 0.068 µM; IC50 (HDAC11): 0.092 µM; IC50 (HDAC2): 0.028 µM; IC50 (HDAC8): 0.043 µM
3 | C/C=C1\NC(=O)c2nc(ccc2F)CNC(=O)C[C@@H](/C=C/CCSC(C)=O)OC(=O)[C@H](C(C)C)NC1=O [Compound 93] | – | – | – | – | – | – | – | – | – | GI50 [10]: 0.028 µM
4 | C/C=C1\NC(=O)c2cc(SC)cc(n2)CNC(=O)C[C@@H](/C=C/CCSC(C)=O)OC(=O)[C@H](C(C)C)NC1=O [Compound 224] | – | no activity | 0.038 µM | 0.034 µM | 0.051 µM | 0.095 µM | 0.058 µM | 0.043 µM | 0.033 µM | GI50 [9]: 0.067 µM
5 | C/C=C1\NC(=O)c2ncc(SC)c(n2)CNC(=O)C[C@@H](/C=C/CCSC(C)=O)OC(=O)[C@H](C(C)C)NC1=O [Compound 217] | – | no activity | 0.035 µM | 0.034 µM | 0.027 µM | 0.021 µM | 0.072 µM | 0.063 µM | 0.099 µM | GI50 [3]: 0.091 µM; GI50 [7]: 0.073 µM
